Patent US20180369327A1, “METHOD FOR TREATING OR PREVENTING OSTEOARTHRITIS” (Dong-A University Research Foundation for Industry-Academy …, priority 2017, published 2018)

What was measured:
[1] = system: rat articular chondrocytes; experiment: DNA hypoploidy / cell cycle analysis by flow cytometry (apoptosis); format: cell-based; conditions: 30 μM cilostazol, 1.5 mM oleate; n=4
Description: Rat articular chondrocytes for primary culture were isolated from knee joint cartilage slices by enzymatic digestion for 1 h with 0.2% type II collagenase (381 units/mg) in DMEM. After the isolated cells were collected by brief centrifugation, they were resuspended in DMEM supplemented with 10% (v/v) FBS, […] streptomycin and 50 units/ml penicillin (Gibco). The cells were plated on culture dishes at a density of 5×10^4 cells/cm^2. The medium was replaced every 2 days, and they reached confluence after approximately 5 days in culture. In each experiment, the cells from three animals were pooled and analyzed three times. FFA were dissolved in absolute ethanol at a concentration of 500 mM and diluted to final concentrations of FFAs with the appropriate concentration of 1% (w/v) FFA-free BSA. Controls were incubated with equal concentrations of FFA-free BSA containing ethanol. […] Cells were washed twice with PBS, and fixed with cold 70% ethanol at 4° C. overnight. The fixed cells were pelleted and ethanol was removed by washing twice with PBS containing 1% bovine serum albumin (BSA). The cells were resuspended in 1 ml of PBS containing 11 Kunitz U/ml RNase A, incubated at 4° C. for 30 min and washed once with BSAPBS. Cells were resuspended in PI solution (50 μg/ml) and incubated at 37° C. for 30 min in dark. […]

[2] = system: lipid droplets (LD) in rat articular chondrocytes; experiment: Lipid droplet staining (Nile red, BODIPY), confocal microscopy and quantification; format: cell-based
Description: Rat articular chondrocytes for primary culture were isolated from knee joint cartilage slices by enzymatic digestion for 1 h with 0.2% type II collagenase (381 units/mg) in DMEM. After the isolated cells were collected by brief centrifugation, they were resuspended in DMEM supplemented with 10% (v/v) FBS, […] streptomycin and 50 units/ml penicillin (Gibco). The cells were plated on culture dishes at a density of 5×10^4 cells/cm^2. The medium was replaced every 2 days, and they reached confluence after approximately 5 days in culture. In each experiment, the cells from three animals were pooled and analyzed three times. FFA were dissolved in absolute ethanol at a concentration of 500 mM and diluted to final concentrations of FFAs with the appropriate concentration of 1% (w/v) FFA-free BSA. Controls were incubated with equal concentrations of FFA-free BSA containing ethanol. […] Cells cultured on a coverslip were incubated with diluted Nile red or BODIPY 493/503. Some sections were double-labelled with TUNEL and BODIPY 493/503 and counterstained with Hoechst 33342. Fluorescence images were observed and analyzed using a Zeiss LSM 510 laser-scanning confocal microscope (Goettingen, Germany). Twenty cells from each experiment were observed and auantification of fluorescence intensity of the confocal images were obtained with the use of ImageJ software. Fluorescence intensity was expressed as AU.

[3] = system: rat articular chondrocytes; experiment: Total cytosol FFA content measurement; format: cell-based; conditions: cells treated with 1.6 mM palmitate and 0.4 mM oleate; n=4
Description: Cell were collected after treatment with trypsin (0.2% trypsin, 0.02% EDTA and 0.2% glucose in PBS) and pelleted by centrifugation (200×g for 5 min at 4° C.). Cell pellet was resuspended in ice-cold hypotonic lysis medium containing 20 mM Tris-HCl, pH 7.4 and 1 mM EDTA. Cells were homogenized with a Dounce homogenizer and then centrifuged (800×g for 5 min at 4° C.). The post-nuclear supernatant fraction was ultra-centrifuged ([…] for 5 min at 4° C.) using Beckman Table-top ultracentrifuge. LD fraction with the distinct white band on the preparation was removed with a pipetman and LD-free cytosol was used for FFA measurement. Cytosol FFA levels were measured using a commercial free fatty acid quantification kit from Abcam (ab65341).

[4] = system: HFD-induced cartilage destruction; experiment: HFD-induced OA mouse model, histologic examination of cartilage; format: in vivo; conditions: mice fed HFD 25 weeks, cilostazol 30 mg/kg/day orally for the last 10 weeks; n=10
Description: All procedures for animal study were approved by the Committee on Animal Investigations at Dong-A University (DIACUC-15-12). Seven-week-old male C57BL/6 mice were obtained from Samtoko (Osan, Korea). Mice were maintained in a temperature-controlled room (22° C.) on a 12:12 h light-dark cycle and free access to water and food. HFD-induced OA mouse model. Sixty mice were fed a normal chow diet for one week and then mice were fed an HFD or a SD for 25 weeks. Ten mice from each diet were used histologically examine the effect of high fat diet. Forty mice were used to examine the effect of cilostazol. Mice fed a SD or HFD for 15 weeks were orally administered cilostazol at concentrations of 30 mg/kg/day for additional 10 weeks. SD+vehicle mice (n=10) were fed a SD and received DMSO. SD+cilostazol mice (n=10) were fed a SD and received cilostazol. HFD+vehicle mice (n=10) were fed a HFD and received DMSO. HFD+cilostazol mice (n=10) were fed a HFD and received cilostazol. Tissue preparation and histologic examination. Animals were killed by ether inhalation. Whole knee joints were removed by dissection, fixed in PBS (pH 7.4) containing 4% paraformaldehyde, decalcified in 12.5% EDTA, dehydrated, and embedded in paraffin blocks. Five-micrometer microsections were prepared and stained with hematoxylin and eosin and with Safranin O-fast green.

PKCK2 = experiment: Immunohistochemistry of cartilage, PKCK2-positive cells, HFD-induced OA mouse model; format: in vivo; conditions: mice fed HFD, cilostazol 30 mg/kg/day orally 10 weeks; n=10
Description: (§1) HFD-induced OA mouse model. Sixty mice were fed a normal chow diet for one week and then mice were fed an HFD or a SD for 25 weeks. Ten mice from each diet were used histologically examine the effect of high fat diet. Forty mice were used to examine the effect of cilostazol. Mice fed a SD or HFD for 15 weeks were orally administered cilostazol at concentrations of 30 mg/kg/day for additional 10 weeks. SD+vehicle mice (n=10) were fed a SD and received DMSO. SD+cilostazol mice (n=10) were fed a SD and received cilostazol. HFD+vehicle mice (n=10) were fed a HFD and received DMSO. HFD+cilostazol mice (n=10) were fed a HFD and received cilostazol. Immunohistochemical observation and analysis. Tissue sections were incubated in 1:70-diluted goat serum solution for 30 minutes at room temperature, and then for 2 hours with 1:100-diluted primary antibody at room temperature. Next, sections were incubated with secondary antibody for 1 hour at 37° C. and developed using ABC complex. […] Histological images were observed and analyzed using a Aperio ScanScope® CS system. Total numbers of positive for […]27 and STAMP2 in four fields per animal were counted by an observer blinded to the experiment and the percentage of positive cells were calculated.

STAMP2 = experiment: Immunohistochemistry of cartilage, STAMP2-positive cells, HFD-induced OA mouse model; format: in vivo; conditions: mice fed HFD, cilostazol 30 mg/kg/day orally 10 weeks; n=10
Description: as §1

FSP27 = experiment: Immunohistochemistry of cartilage, FSP27-positive cells, HFD-induced OA mouse model; format: in vivo; parameters: reference not given here; conditions: mice fed HFD, cilostazol 30 mg/kg/day orally 10 weeks; n=10
Description: as §1

O=C1CCc2cc(OCCCCc3nnnn3C3CCCCC3)ccc2N1 [cilostazol]
effect on oleate-induced apoptosis (histograms) [1]: prevented 1.5 mM oleate-induced apoptosis
LD size and LD accumulation ([2]; 30 μM cilostazol, 1.5 mM oleate): increases LD size and LD accumulation
LD accumulation ([2]; cilostazol in cells treated with 0.4 mM oleate and 1.6 mM palmitate): augmented the LD accumulation
total LD volume ([2]; cilostazol versus 1.5 mM oleate alone, n=4): significantly increased
oleate-induced LD fragmentation ([2]; cilostazol, 1.5 mM oleate, n=4): prevented oleate-induced LD fragmentation
FFA level in the cytosol [3]: significantly decreased the FFA level in the cytosol
HFD-induced cartilage destruction [4]: markedly prevented the HFD-induced cartilage destruction
population of PKCK2-positive cells (PKCK2): significantly increased
population of STAMP2-positive cells (STAMP2): significantly increased
population of FSP27-positive cells (FSP27): significantly increased
